Assay results from patent US20150105252A1, “SUBSTITUTED PYRAZOLES AS HERBICIDES” (E I DU PONT DE NEMOURS AND COMPANY, priority 2013, published 2015).

Key:
johnsongrass = assay: Test C preemergence; assay type: in vivo, Sorghum halepense; conditions: preemergence; for Plant response rating, Johnsongrass: 125 g ai/ha, scale 0 to 100, 0 = no effect, 100 = complete control
Description: (§1) Seeds of plant species selected from blackgrass (Alopecurus myosuroides), ryegrass, Italian (Italian ryegrass, Lolium multiflorum), wheat (winter wheat, Triticum aestivum), galium (catchweed bedstraw, Galium aparine), corn (Zea mays), crabgrass, large (large crabgrass, Digitaria sanguinalis), foxtail, giant (giant foxtail, Setaria faberii), johnsongrass (Sorghum halepense), lambsquarters (Chenopodium album), morningglory (Ipomoea coccinea), nutsedge, yellow (yellow nutsedge, Cyperus esculentus), pigweed (redroot pigweed, Amaranthus retroflexus), ragweed (common ragweed, Ambrosia elation), soybean (Glycine max), barnyardgrass (Echinochloa crus-galli), oilseed rape (Brassica napus), waterhemp (common waterhemp, Amaranthus rudis), oat, wild (wild oat, Avena fatua), kochia (Kochia scoparia), Surinam grass (Brachiaria decumbens), foxtail, green (green foxtail, Setaria viridis), goosegrass (Eleusine indica), bromegrass, downy (downy bromegrass, Bromus tectorum), nightshade (eastern black nightshade, Solanum ptycanthum), cocklebur (common cocklebur, Xanthium strumarium), cupgrass, woolly (woolly cupgrass, Eriochloa villosa), bermudagrass (Cynodon dactylon), sunflower, (common oilseed sunflower, Helianthus annuus), Russian thistle (Salsola kali), and velvetleaf (Abutilon theophrasti) were planted into a blend of loam soil and sand and treated preemergence with test chemicals formulated in a non-phytotoxic solvent mixture which included a surfactant.
(§2) At the same time, plants selected from these crop and weed species and also chickweed (common chickweed, Stellaria media), canarygrass (littleseed canarygrass, Phalaris minor), and deadnettle (henbit deadnettle, Lamium amplexicaule), were planted in pots containing Redi-Earth® planting medium (Scotts Company, 14111 Scottslawn Road, Marysville, Ohio 43041) comprising spaghnum peat moss, vermiculite, wetting agent and starter nutrients and treated with postemergence applications of test chemicals formulated in the same manner. Plants ranged in height from 2 to 18 cm (1- to 4-leaf stage) for postemergence treatments. Treated plants and controls were maintained in a greenhouse for 13 to 15 days, after which time all species were compared to controls and visually evaluated. Plant response ratings, summarized in Table C, are based on a scale of 0 to 100 where 0 is no effect and 100 is complete control. A dash (-) response means no test result.

morningglory = assay: Test A preemergence; assay type: in vivo, Ipomoea spp.; conditions: for Morningglory plant response rating (0 to 100 scale): 125 g ai/ha, visual injury approx. 10 days after treatment
Procedure, shortened: (§3)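 Ratings express plant response from 0 (no effect) to 100 (complete control), judged visually against untreated controls after approximately 10 days in the greenhouse. Preemergence applications were made as directed soil sprays onto seeded loam–sand mix, and postemergence applications onto 2–10 cm plants at one- to two-leaf stage.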

waterhemp = assay: Test C preemergence; assay type: in vivo, Amaranthus rudis; conditions: preemergence; for Plant response rating, Waterhemp: 125 g ai/ha, scale 0 to 100, 0 = no effect, 100 = complete control
Description: as §1, §2

velvetleaf = assay: Test C preemergence; assay type: in vivo, Abutilon theophrasti; conditions: preemergence; for Plant response rating, Velvetleaf: 125 g ai/ha, scale 0 to 100, 0 = no effect, 100 = complete control
Description: as §1, §2

ryegrass, Italian = assay: Test C preemergence; assay type: in vivo, Lolium multiflorum; conditions: preemergence; for Plant response rating, Ryegrass, Italian: 125 g ai/ha, scale 0 to 100, 0 = no effect, 100 = complete control
Description: as §1, §2

foxtail, giant = assay: Test C preemergence; assay type: in vivo, Setaria faberii; conditions: preemergence; for Plant response rating, Foxtail, Giant: 125 g ai/ha, scale 0 to 100, 0 = no effect, 100 = complete control
Description: as §1, §2

pigweed = assay: Test A postemergence; assay type: in vivo, Amaranthus retroflexus
Procedure, shortened: as §3

crabgrass, large [1] = assay: Test C preemergence; assay type: in vivo, Digitaria sanguinalis; conditions: preemergence; for Plant response rating, Crabgrass, Large: 125 g ai/ha, scale 0 to 100, 0 = no effect, 100 = complete control
Description: as §1, §2

crabgrass, large [2] = assay: Test A preemergence; assay type: in vivo, Digitaria sanguinalis; conditions: for Crabgrass, Large plant response rating (0 to 100 scale): 125 g ai/ha, visual injury approx. 10 days after treatment
Procedure, shortened: as §3

barnyardgrass = assay: Test A postemergence; assay type: in vivo, Echinochloa crus-galli
Procedure, shortened: as §3

kochia = assay: Test C postemergence; assay type: in vivo, Kochia scoparia; conditions: for Kochia plant response rating: Postemergence, 31 g ai/ha, scale 0 to 100; for Plant response rating, Kochia: postemergence
Description: as §1, §2

crabgrass, large [3] = assay: Test C postemergence; assay type: in vivo, Digitaria sanguinalis; conditions: for Crabgrass, Large plant response rating: Postemergence, 31 g ai/ha, scale 0 to 100; for Plant response rating, Crabgrass, Large: postemergence
Description: as §1, §2

chickweed = assay: Test C postemergence; assay type: in vivo, Stellaria media; conditions: for Chickweed plant response rating: Postemergence, 31 g ai/ha, scale 0 to 100; for Plant response rating, Chickweed: postemergence
Description: as §1, §2

[4] = 31 g ai/ha, visual rating, scale 0 to 100 (0 no effect, 100 complete control), 13 to 15 days
[5] = 62 g ai/ha, scale 0 to 100 (0 no effect, 100 complete control), 13 to 15 days
[6] = 250 g ai/ha, scale 0 to 100, 0 is no effect, 100 is complete control
[7] = Postemergence, 500 g ai/ha, 0 to 100 scale (0 no effect, 100 complete control)
[8] = preemergence, 500 g ai/ha, visual injury after approx. 10 days, 0 to 100 scale (0 no effect, 100 complete control)
[9] = postemergence, 125 g ai/ha, about 10 days, visual rating on 0 to 100 scale (0 no effect, 100 complete control)
[10] = Preemergence, 1000 g ai/ha, 0 to 100 scale, 0 no effect, 100 complete control
[11] = 250 g ai/ha, scale 0 to 100 (0 no effect, 100 complete control)
[12] = 62 g ai/ha, scale 0 to 100, 0 no effect, 100 complete control
[13] = 125 g ai/ha, scale 0 to 100, 0 no effect, 100 complete control
[14] = Postemergence, 1000 g ai/ha, visual rating after approx. 10 days, 0 to 100 scale (0 no effect, 100 complete control)

SMILES: CCCc1cc(C(=O)NOC(C)C)nn1Cc1cc(C(F)(F)F)nn1C [Compound 203]
- Johnsongrass plant response rating (johnsongrass; [4]): 0
- Johnsongrass plant response rating (johnsongrass; [5]): 0
- Plant response rating, Johnsongrass (johnsongrass; 13 to 15 days): 40
- Johnsongrass plant response rating (johnsongrass; [6]): 55
- Morningglory plant response rating (0 to 100 scale) (morningglory; preemergence): 10
- Waterhemp plant response rating (waterhemp; [4]): 85
- Waterhemp plant response rating (waterhemp; [5]): 95
- Plant response rating, Waterhemp (waterhemp; 13 to 15 days): 100
- Waterhemp plant response rating (waterhemp; [6]): 100
- Velvetleaf plant response rating (velvetleaf; [4]): 30
- Velvetleaf plant response rating (velvetleaf; [5]): 98
- Plant response rating, Velvetleaf (velvetleaf; 13 to 15 days): 100
- Velvetleaf plant response rating (velvetleaf; [6]): 100
- Ryegrass, Italian plant response rating (ryegrass, Italian; [4]): 5
- Ryegrass, Italian plant response rating (ryegrass, Italian; [5]): 60
- Plant response rating, Ryegrass, Italian (ryegrass, Italian; 13 to 15 days): 90
- Ryegrass, Italian plant response rating (ryegrass, Italian; [6]): 90
- Foxtail, Giant plant response rating (foxtail, giant; [4]): 60
- Foxtail, Giant plant response rating (foxtail, giant; [5]): 98
- Plant response rating, Foxtail, Giant (foxtail, giant; 13 to 15 days): 100
- Foxtail, Giant plant response rating (foxtail, giant; [6]): 100
- Pigweed plant response rating (pigweed; Postemergence, 125 g ai/ha, 0 to 100 scale, 0 no effect, 100 complete control): 90
- Pigweed plant response rating (pigweed; [7]): 100
- Crabgrass, Large plant response rating (crabgrass, large [1]; [4]): 80
- Crabgrass, Large plant response rating (crabgrass, large [1]; [5]): 95
- Plant response rating, Crabgrass, Large (crabgrass, large [1]; 13 to 15 days): 100
- Crabgrass, Large plant response rating (crabgrass, large [1]; [6]): 100
- Crabgrass, Large plant response rating (0 to 100 scale) (crabgrass, large [2]; preemergence): 100
- Crabgrass, Large plant response rating (crabgrass, large [2]; [8]): 100
- Barnyardgrass plant response rating (barnyardgrass; [7]): 80
- Barnyardgrass plant response rating (barnyardgrass; [9]): 40

SMILES: O=C(NCC(F)(F)F)c1cc(CCF)n(Cc2ccnc(C(F)(F)F)c2)n1 [Compound 175]
- Johnsongrass plant response rating (johnsongrass; [4]): 0
- Johnsongrass plant response rating (johnsongrass; [5]): 35
- Plant response rating, Johnsongrass (johnsongrass; 13 to 15 days): 70
- Johnsongrass plant response rating (johnsongrass; [6]): 100
- Morningglory plant response rating (0 to 100 scale) (morningglory; preemergence): 100
- Morningglory plant response rating (morningglory; [8]): 100
- Waterhemp plant response rating (waterhemp; [4]): 100
- Waterhemp plant response rating (waterhemp; [5]): 100
- Plant response rating, Waterhemp (waterhemp; 13 to 15 days): 100
- Waterhemp plant response rating (waterhemp; [6]): 100
- Velvetleaf plant response rating (velvetleaf; [4]): 55
- Velvetleaf plant response rating (velvetleaf; [5]): 98
- Plant response rating, Velvetleaf (velvetleaf; 13 to 15 days): 100
- Velvetleaf plant response rating (velvetleaf; [6]): 100
- Ryegrass, Italian plant response rating (ryegrass, Italian; [4]): 30
- Ryegrass, Italian plant response rating (ryegrass, Italian; [5]): 85
- Plant response rating, Ryegrass, Italian (ryegrass, Italian; 13 to 15 days): 90
- Ryegrass, Italian plant response rating (ryegrass, Italian; [6]): 90
- Foxtail, Giant plant response rating (foxtail, giant; [4]): 75
- Foxtail, Giant plant response rating (foxtail, giant; [5]): 100
- Plant response rating, Foxtail, Giant (foxtail, giant; 13 to 15 days): 100
- Foxtail, Giant plant response rating (foxtail, giant; [6]): 100
- Pigweed plant response rating (pigweed; [7]): 100
- Pigweed plant response rating (pigweed; [9]): 100
- Crabgrass, Large plant response rating (crabgrass, large [1]; [4]): 100
- Crabgrass, Large plant response rating (crabgrass, large [1]; [5]): 100
- Plant response rating, Crabgrass, Large (crabgrass, large [1]; 13 to 15 days): 100
- Crabgrass, Large plant response rating (crabgrass, large [1]; [6]): 100
- Crabgrass, Large plant response rating (0 to 100 scale) (crabgrass, large [2]; preemergence): 100
- Crabgrass, Large plant response rating (crabgrass, large [2]; [8]): 100
- Barnyardgrass plant response rating (barnyardgrass; [7]): 90
- Barnyardgrass plant response rating (barnyardgrass; [9]): 70

SMILES: CCCNC(=O)c1cc(CC)n(Cc2cccc(OC(F)(F)F)c2)n1 [Compound 27]
- Morningglory plant response rating (morningglory; [10]): 90
- Kochia plant response rating (kochia): 35
- Plant response rating, Kochia (kochia; [11]): 95
- Plant response rating, Kochia (kochia; [12]): 70
- Plant response rating, Kochia (kochia; [13]): 80
- Crabgrass, Large plant response rating (crabgrass, large [3]): 0
- Plant response rating, Crabgrass, Large (crabgrass, large [3]; [11]): 45
- Plant response rating, Crabgrass, Large (crabgrass, large [3]; [12]): 5
- Plant response rating, Crabgrass, Large (crabgrass, large [3]; [13]): 10
- Chickweed plant response rating (chickweed): 20
- Plant response rating, Chickweed (chickweed; [11]): 75
- Plant response rating, Chickweed (chickweed; [12]): 20
- Plant response rating, Chickweed (chickweed; [13]): 40
- Pigweed plant response rating (pigweed; [14]): 70
- Crabgrass, Large plant response rating (crabgrass, large [2]; [10]): 100
- Barnyardgrass plant response rating (barnyardgrass; [14]): 60

SMILES: CCc1cc(C(=O)NCC(F)(F)F)nn1Cc1cccc(OC(F)(F)F)c1 [Compound 20]
- Morningglory plant response rating (morningglory; [10]): 70
- Kochia plant response rating (kochia): 90
- Plant response rating, Kochia (kochia; [11]): 98
- Plant response rating, Kochia (kochia; [12]): 95
- Plant response rating, Kochia (kochia; [13]): 98
- Crabgrass, Large plant response rating (crabgrass, large [3]): 10
- Plant response rating, Crabgrass, Large (crabgrass, large [3]; [11]): 45
- Plant response rating, Crabgrass, Large (crabgrass, large [3]; [12]): 20
- Plant response rating, Crabgrass, Large (crabgrass, large [3]; [13]): 35
- Chickweed plant response rating (chickweed): 45
- Plant response rating, Chickweed (chickweed; [11]): 75
- Plant response rating, Chickweed (chickweed; [12]): 45
- Plant response rating, Chickweed (chickweed; [13]): 75
- Pigweed plant response rating (pigweed; [14]): 100
- Crabgrass, Large plant response rating (crabgrass, large [2]; [10]): 90
- Barnyardgrass plant response rating (barnyardgrass; [14]): 60
